Data taken from BindingDB's records for doi:10.1021/jm980108d (Prassis Istituto Di Ricerche Sigma-Tau, 1998).

Biological target: Sodium/potassium-transporting ATPase (Canis familiaris)
Test: Compound was evaluated for its ability to inhibit the specific [3H]-ouabain binding to dog kidney Na+/K+ ATPase

Row | Compound | IC50 [µM]
1 | C[C@H]1/C(=C/C(=O)OCCN(C)C)CCC2C1C(=O)C[C@H]1C(C)(C)[C@@H](O)CC[C@]21C (stereo partly drawn) [[(1R,4bR,7S,8aR)-7-Hydroxy-1,4b,8,8-tetramethyl-10-oxo-dodecahydro-phenanthren-(2E)-ylidene]-acetic acid 2-dimethylamino-ethyl ester] | 0.1
2 | C[C@]12CC[C@H](O)C[C@H]1CC[C@@H]1[C@@H]2CC[C@]2(C)[C@@H](/C=C/C=O)CC[C@]12O | 0.06
